Laboratory results: patent publication US4181731A, “Novel therapeutic application of 4-carbamoyl-5-hydroxyimidazole” (Sumitomo Chemical Company, Limited, priority 1978, dated 1980)

Columns and labels:
mice (ICR, male) = experiment: Subacute toxicities against mice (oral, 21 days); assay type: in vivo; details: 100 mg/kg/day orally
Protocol: Subacute toxicities of Compound A against mice (ICR, male, body weight approximately 25 g) were as follows. The said compound was orally administered for 21 days. The dosage level was 100 mg/kg/day.

[1] = Acute toxicity against mice; details: mouse, in vivo, mice (ICR, male, 22-25 g)
From the text: Acute toxicity of Compound A against mice (ICR, male, body weight 22-25 g) was as follows.

adjuvant arthritis = experiment: Inhibitory effects on the adjuvant arthritis of rats (antirheumatic activity); assay type: in vivo; details: for Foot Volume: control 2.34 ml; for Inhibition Rate: foot volume
Protocol: The antirheumatic activities on adjuvant arthritis were estimated according to the methods described in "Arzneimittel-Forschung (Drug Res.)", Vol. 22, p. 1959 (1972).
*Successive administration was performed immediately after inoculation of […]

Masuji nephritis = experiment: Antinephritic effects on Masuji nephritis; assay type: in vivo; details: for Urinary Protein: control 238.9; for Inhibition Ratio: urinary protein
From the text: The antinephritic activities were estimated according to the methods described in "Arerugii", Vol. 24, p. 472 (1975) (in Japanese).
*Successive oral administration began for 2 days before the injection of […]

NC(=O)c1nc[nH]c1O [Compound A, 4-carbamoyl-5-hydroxyimidazole]
Autopsy (mice (ICR, male)): No adverse effect
Body weight change (mice (ICR, male)): Normal
Clinical signs (mice (ICR, male)): No adverse effect except slight involution of the spleen
Food consumption (mice (ICR, male)): Normal
Haematology, overall finding (mice (ICR, male)): No adverse effect
Relative organ weight, Heart (average) (mice (ICR, male)): 0.49%
Relative organ weight, Kidney (average) (mice (ICR, male)): 1.50%
Relative organ weight, Liver (average) (mice (ICR, male)): 6.24%
Relative organ weight, Lung (average) (mice (ICR, male)): 0.81%
Relative organ weight, Spleen (average) (mice (ICR, male)): 0.30%
Relative organ weight, Testis (average) (mice (ICR, male)): 0.38%
Relative organ weight, Thymus (average) (mice (ICR, male)): 0.20%
Urinalysis, overall finding (mice (ICR, male)): No adverse effect
GOT (average) (mice (ICR, male); Haematology): 54.4 K.U.
Hematocrit value (average) (mice (ICR, male); Haematology): 35%
Hemoglobin (average) (mice (ICR, male); Haematology): 15.1 g/dL
Red blood cells (average) (mice (ICR, male); Haematology): 6.0 × 10^6 /mm^3
White blood cells (average) (mice (ICR, male); Haematology): 6.5 × 10^4 /mm^3
Glucose (urinalysis) (mice (ICR, male); Urinalysis): Negative
Occult blood (urinalysis) (mice (ICR, male); Urinalysis): Negative
Protein (urinalysis) (mice (ICR, male); Urinalysis): 30 to 100 mg/dL
pH (urinalysis) (mice (ICR, male); Urinalysis): 6.0-6.5
LD50 ([1]; ip): > 500 mg/kg
LD50 ([1]; iv): > 130 mg/kg
LD50 ([1]; po): > 2000 mg/kg
Foot Volume (adjuvant arthritis; 5 mg/kg/day × 21, p.o.): 1.28 mL
Foot Volume (adjuvant arthritis; 10 mg/kg/day × 21, p.o.): 0.88 mL
Foot Volume (adjuvant arthritis; 25 mg/kg/day × 21, p.o.): 0.44 mL
Inhibition Rate (adjuvant arthritis; 5 mg/kg/day × 21, p.o.): 45.3%
Inhibition Rate (adjuvant arthritis; 10 mg/kg/day × 21, p.o.): 62.3%
Inhibition Rate (adjuvant arthritis; 25 mg/kg/day × 21, p.o.): 81.2%
Urinary Protein (Masuji nephritis; 5 mg/kg/day × 16, p.o.): 147.6 mg/24 hrs.
Urinary Protein (Masuji nephritis; 10 mg/kg/day × 16, p.o.): 68.4 mg/24 hrs.
Urinary Protein (Masuji nephritis; 25 mg/kg/day × 16, p.o.): 28.4 mg/24 hrs.
Inhibition Ratio (Masuji nephritis; 5 mg/kg/day × 16, p.o.): 38.2%
Inhibition Ratio (Masuji nephritis; 10 mg/kg/day × 16, p.o.): 71.4%
Inhibition Ratio (Masuji nephritis; 25 mg/kg/day × 16, p.o.): 88.1%
